In the NIST ThermoML archive (doi:10.1021/je100774p):
± gives the expanded uncertainty stated by the source.

Test: mn = molality of the nth substance listed, in mol/kg
Details: 101 kPa, Liquid; for viscosity: Capillary tube (Ostwald / Ubbelohde) method

O=C(O)c1cccnc1 [3-carboxylpyridine] + O
Details | mass density, 293.15 K [kg/m3] | mass density, 298.15 K [kg/m3] | mass density, 303.15 K [kg/m3] | mass density, 308.15 K [kg/m3] | mass density, 313.15 K [kg/m3] | viscosity, 293.15 K [mPa·s] | viscosity, 298.15 K [mPa·s] | viscosity, 303.15 K [mPa·s] | viscosity, 308.15 K [mPa·s] | viscosity, 313.15 K [mPa·s]
m1 = 0.004283 | 998.41 ± 0.16 | 997.22 ± 0.16 | 995.82 ± 0.16 | 994.28 ± 0.17 | 992.41 ± 0.17 | 1.004 ± 0.008 | 0.8912 ± 0.007 | 0.7981 ± 0.0061 | 0.7201 ± 0.0055 | 0.6538 ± 0.0051
m1 = 0.006512 | 998.5 ± 0.16 | 997.3 ± 0.16 | 995.95 ± 0.16 | 994.35 ± 0.16 | 992.59 ± 0.17 | 1.005 ± 0.008 | 0.8917 ± 0.007 | 0.7985 ± 0.0061 | 0.7205 ± 0.0055 | 0.6543 ± 0.0051
m1 = 0.008188 | – | – | – | – | – | 1.006 ± 0.008 | 0.8923 ± 0.007 | 0.7989 ± 0.0061 | 0.7211 ± 0.0055 | 0.6547 ± 0.0051
m1 = 0.00819 | 998.57 ± 0.16 | 997.41 ± 0.16 | 996.01 ± 0.16 | 994.4 ± 0.16 | 992.64 ± 0.16 | – | – | – | – | –
m1 = 0.01628 | 998.83 ± 0.16 | 997.73 ± 0.16 | 996.31 ± 0.16 | 994.75 ± 0.16 | 992.98 ± 0.16 | 1.007 ± 0.008 | 0.8941 ± 0.007 | 0.8005 ± 0.0062 | 0.7224 ± 0.0055 | 0.6561 ± 0.0051
m1 = 0.03262 | 999.56 ± 0.16 | 998.36 ± 0.16 | 996.97 ± 0.16 | 995.44 ± 0.16 | 993.51 ± 0.16 | 1.011 ± 0.008 | 0.8978 ± 0.007 | 0.8035 ± 0.0062 | 0.7254 ± 0.0055 | 0.6588 ± 0.0051
m1 = 0.04903 | 1000.25 ± 0.16 | 999.09 ± 0.16 | 997.72 ± 0.16 | 996.14 ± 0.16 | 994.22 ± 0.17 | 1.015 ± 0.008 | 0.9012 ± 0.007 | 0.8067 ± 0.0062 | 0.7282 ± 0.0055 | 0.661 ± 0.0051
m1 = 0.06555 | 1000.89 ± 0.16 | 999.71 ± 0.16 | 998.32 ± 0.16 | 996.72 ± 0.16 | 994.91 ± 0.16 | 1.018 ± 0.008 | 0.9039 ± 0.007 | 0.8098 ± 0.0062 | 0.7312 ± 0.0056 | 0.6639 ± 0.0051
m1 = 0.0821 | 1001.66 ± 0.16 | 1000.45 ± 0.16 | 999.03 ± 0.16 | 997.41 ± 0.16 | 995.56 ± 0.16 | 1.022 ± 0.008 | 0.9074 ± 0.0071 | 0.8127 ± 0.0062 | 0.7338 ± 0.0056 | 0.6662 ± 0.0052
m1 = 0.09871 | 1002.29 ± 0.16 | 1001.09 ± 0.16 | 999.67 ± 0.16 | 998.05 ± 0.16 | 996.21 ± 0.16 | 1.026 ± 0.008 | 0.9109 ± 0.0071 | 0.8158 ± 0.0063 | 0.7364 ± 0.0056 | 0.6686 ± 0.0052
m1 = 0.1154 | 1003.05 ± 0.16 | 1001.8 ± 0.16 | 1000.33 ± 0.16 | 998.71 ± 0.16 | 996.84 ± 0.16 | 1.029 ± 0.008 | 0.9144 ± 0.0071 | 0.8192 ± 0.0063 | 0.7395 ± 0.0056 | 0.6713 ± 0.0052
m1 = 0.1321 | 1003.75 ± 0.16 | 1002.51 ± 0.16 | 1001.03 ± 0.16 | 999.39 ± 0.16 | 997.49 ± 0.16 | 1.033 ± 0.008 | 0.9178 ± 0.0071 | 0.8225 ± 0.0063 | 0.742 ± 0.0056 | 0.6742 ± 0.0052

O [water] + O=C(O)c1cccnc1
m2 = 0
Details | viscosity [mPa·s]
293.15 K | 1.003 ± 0.008
298.15 K | 0.8904 ± 0.0069
303.15 K | 0.7973 ± 0.0061
308.15 K | 0.7194 ± 0.0055
313.15 K | 0.653 ± 0.0051
